ChEMBL document CHEMBL5625227, “Discovery and optimization of 2,3-diaryl-1,3-thiazolidin-4-one-based derivatives as potent and selective cytotoxic agents with anti-inflammatory activity” (Eur J Med Chem, 2023)
Calls of active or inactive are those of the source. The rule behind the calls is not given here.

What was measured:
[1] = test system: Ehrlich; assay: Antitumor activity against mouse Ehrlich solid carcinoma cells bearing adult male swiss albino mouse assessed as decrease in tumor weight at 50 mg/kg, po administered every other day and observed at 14 days; assay type: functional, organism-based; settings: time 14.0 day
[2] = Selectivity index, ratio of IC50 for cytotoxicity against human MRC5 cells to IC50 for cytotoxicity against human A2780 cells; settings: MRC5 cells versus A2780 cells
[3] = test system: HT-29; assay: Anticlonogenic activity against human HT-29 cells assessed as reduction in number of colonies at 0.25 uM incubated for 24 hrs by clonogenic survival assay; assay type: functional, cell-based
[4] = Acute ulcerogenic activity in Sprague-Dawley male rat assessed as change in normal lamina propria at 50 mg/kg/day, po administered for 3 days by hematoxylin and eosin staining method; assay type: toxicity, organism-based, Stomach; settings: in vivo, 72 h, time 3 day
[5] = molecular target: T1, Prostaglandin G/H synthase 1 (Ovis aries, UniProt P05979); assay: Inhibition of ovine COX-1
T1 sequence (P05979 whole entry): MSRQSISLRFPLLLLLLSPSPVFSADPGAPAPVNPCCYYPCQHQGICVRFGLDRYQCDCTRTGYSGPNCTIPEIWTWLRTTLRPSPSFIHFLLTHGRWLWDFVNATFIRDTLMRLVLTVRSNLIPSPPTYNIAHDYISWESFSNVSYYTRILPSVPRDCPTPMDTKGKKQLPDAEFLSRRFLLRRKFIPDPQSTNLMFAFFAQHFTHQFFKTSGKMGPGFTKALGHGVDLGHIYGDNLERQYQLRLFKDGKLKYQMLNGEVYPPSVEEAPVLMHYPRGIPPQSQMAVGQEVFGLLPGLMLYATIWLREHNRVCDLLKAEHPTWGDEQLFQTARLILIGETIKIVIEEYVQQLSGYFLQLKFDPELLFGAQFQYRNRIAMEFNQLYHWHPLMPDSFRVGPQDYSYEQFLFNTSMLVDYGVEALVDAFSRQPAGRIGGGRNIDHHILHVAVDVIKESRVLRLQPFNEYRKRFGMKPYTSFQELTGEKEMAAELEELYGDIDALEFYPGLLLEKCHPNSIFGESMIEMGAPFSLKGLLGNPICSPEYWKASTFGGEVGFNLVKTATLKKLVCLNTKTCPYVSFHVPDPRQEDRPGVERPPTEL

[6] = test system: Rattus norvegicus; assay: Antiinflammatory activity against carrageenan-induced paw edema Sprague-Dawley rat model assessed as inhibition of paw edema by measuring edema thickness at 50 mg/kg, po measured after 1 hr (reference value: 0.71 +/- 0.03 mm); assay type: functional
[7] = Acute ulcerogenic activity in Sprague-Dawley male rat assessed as change in normal glands at 50 mg/kg/day, po administered for 3 days by hematoxylin and eosin staining method; assay type: toxicity, organism-based, Stomach; settings: in vivo, 72 h, time 3 day
[8] = test system: Ehrlich; assay: Antitumor activity against mouse Ehrlich solid carcinoma cells bearing adult male swiss albino mouse assessed as tumor growth inhibition at 50 mg/kg, po administered every other day and observed at 13 days relative to control; assay type: functional; settings: 312 h, time 13 day, read-out: TGI
[9] = Acute ulcerogenic activity in Sprague-Dawley male rat assessed as change in normal keratin at 50 mg/kg/day, po administered for 3 days by hematoxylin and eosin staining method; assay type: toxicity, organism-based, Stomach; settings: in vivo, 72 h, time 3 day
[10] = test system: Rattus norvegicus; assay: Antiinflammatory activity against carrageenan-induced paw edema Sprague-Dawley rat model assessed as inhibition of inflammation at 50 mg/kg, po after 3 hrs relative to control; assay type: functional; set-up: scale not given: the % may be the effect or the level left
[11] = test system: HT-29; assay: Induction of apoptosis in human HT-29 cells assessed as accumulation of cells at necrotic stage at 0.25 uM incubated for 24 hrs by Annexin V-FITC/propidium iodide staining based flow cytometry analysis (reference value: 8.1%); assay type: functional
[12] = test system: HT-29; assay: Anti-migration activity in human HT-29 cells assessed as suppression in cell migration at 0.250 uM incubated 48 hrs by wound-healing assay; assay type: functional, cell-based; settings: dose 0.25 µM
[13] = test system: Rattus norvegicus; assay: Antiinflammatory activity against carrageenan-induced paw edema Sprague-Dawley rat model assessed as inhibition of inflammation at 50 mg/kg, po after 5 hrs relative to control; assay type: functional; set-up: scale not given: the % may be the effect or the level left
[14] = test system: Rattus norvegicus; assay: Antiinflammatory activity against carrageenan-induced paw edema Sprague-Dawley rat model assessed as inhibition of inflammation at 50 mg/kg, po after 1 hr relative to control; assay type: functional; set-up: scale not given: the % may be the effect or the level left
[15] = test system: Ehrlich; assay: Antitumor activity against mouse Ehrlich solid carcinoma cells bearing adult male swiss albino mouse assessed as decrease in tumor volume at 50 mg/kg, po administered every other day and observed at 5 days; assay type: functional, organism-based; settings: time 5.0 day
[16] = Acute ulcerogenic activity in Sprague-Dawley male rat assessed as ulcer index at 50 mg/kg/day, po administered for 3 days; assay type: toxicity, organism-based; settings: in vivo, 72 h, time 3 day
[17] = Acute ulcerogenic activity in Sprague-Dawley male rat assessed as average number of ulcers at 50 mg/kg/day, po administered for 3 days; assay type: toxicity, organism-based; settings: in vivo, 72 h, time 3 day
[18] = species: Sus scrofa; assay: Inhibition of porcine brain tubulin polymerization at 1 uM by fluorescence-based tubulin polymerization assay
[19] = Acute ulcerogenic activity in Sprague-Dawley male rat assessed as incidence of ulcer/10 animal at 50 mg/kg/day, po administered for 3 days; assay type: toxicity, organism-based; settings: in vivo, 72 h, time 3 day
[20] = test system: Ehrlich; assay: Antitumor activity against mouse Ehrlich solid carcinoma cells bearing adult male swiss albino mouse assessed as decrease in tumor volume at 50 mg/kg, po administered every other day and observed at 9 days; assay type: functional, organism-based; settings: time 9.0 day
[21] = test system: MCF7; assay: Cytotoxicity against human MCF7 cells assessed as inhibition in cell growth incubated for 72 hrs by MTT assay; assay type: functional, cell-based; settings: MCF7, 72 h
[22] = test system: HT-29; assay: Cytotoxicity against human HT-29 cells assessed as inhibition in cell growth incubated for 72 hrs by MTT assay; assay type: functional, cell-based; settings: HT-29, 72 h
[23] = Selectivity index, ratio of IC50 for cytotoxicity against human MRC5 cells to IC50 for cytotoxicity against human MCF7 cells; settings: MRC5 cells versus MCF7 cells
[24] = test system: Ehrlich; assay: Antitumor activity against mouse Ehrlich solid carcinoma cells bearing adult male swiss albino mouse assessed as decrease in tumor volume at 50 mg/kg, po administered every other day and observed at 13 days; assay type: functional, organism-based; settings: time 13.0 day
[25] = Acute ulcerogenic activity in Sprague-Dawley male rat assessed as average severity of ulcers at 50 mg/kg/day, po administered for 3 days; assay type: toxicity, organism-based; settings: in vivo, 72 h, time 3 day
[26] = test system: HT-29; assay: Induction of apoptosis in human HT-29 cells assessed as accumulation of cells at viable stage at 0.25 uM incubated for 24 hrs by Annexin V-FITC/propidium iodide staining based flow cytometry analysis (Rvb=91.7%); assay type: functional
[27] = Cytotoxicity against human MRC5 cells assessed as inhibition in cell growth incubated for 72 hrs by MTT assay; assay type: toxicity, cell-based
[28] = test system: HT-29; assay: Induction of apoptosis in human HT-29 cells assessed as accumulation of cells at late apoptotic stage at 0.25 uM incubated for 24 hrs by Annexin V-FITC/propidium iodide staining based flow cytometry analysis (reference value: 0.2%); assay type: functional
[29] = test system: Rattus norvegicus; assay: Antiinflammatory activity against carrageenan-induced paw edema Sprague-Dawley rat model assessed as inhibition of paw edema by measuring edema thickness at 50 mg/kg, po measured after 3 hrs (reference value: 1.41 +/- 0.13 mm); assay type: functional
[30] = test system: HT-29; assay: Induction of apoptosis in human HT-29 cells assessed as accumulation of cells at early apoptotic stage at 0.25 uM incubated for 24 hrs by Annexin V-FITC/propidium iodide staining based flow cytometry analysis (reference value: 0.1%); assay type: functional
[31] = test system: Rattus norvegicus; assay: Antiinflammatory activity against carrageenan-induced paw edema Sprague-Dawley rat model assessed as inhibition of paw edema by measuring edema thickness at 50 mg/kg, po measured after 5 hrs (reference value: 1.39 +/- 0.11 mm); assay type: functional
[32] = Selectivity index, ratio of IC50 for cytotoxicity against human MRC5 cells to IC50 for cytotoxicity against human HT-29 cells; settings: MRC5 cells versus HT-29 cells
[33] = test system: A2780; assay: Cytotoxicity against human A2780 cells assessed as inhibition in cell growth incubated for 72 hrs by MTT assay; assay type: functional, cell-based; settings: A2780, 72 h

## COc1ccc(NC(=O)COc2ccc(N3C(=O)CSC3c3ccccc3)cc2)cc1 (stereo not drawn)
[1]
  Activity: Active
[2]
  selectivity ratio at 72 h: 9.3
[3]
  Activity: Active
[4]
  Activity: Non-Toxic
[5]
  IC50: 0.62 µM
[6]
  Activity: 0.48 mm
[7]
  Activity: Non-Toxic
[8]
  inhibition in vivo at 50 mg/kg: 27.4%
[9]
  Activity: Non-Toxic
[10]
  Activity: 32.7%
[11]
  Activity: 9.8%
[12]
  Activity: Active
[13]
  Activity: 59.7%
[14]
  Activity: 15.3%
[15]
  Activity: Active
[16]
  UI: 5
[17]
  Activity: 0.67
[18]
  inhibition: inactive
[19]
  Activity: 3.33%
[20]
  Activity: Active
[21]
  IC50: 1.51 µM
[22]
  IC50: 0.24 µM
[23]
  selectivity ratio at 72 h: 4.13
[24]
  Activity: Active
[25]
  Activity: 1
[26]
  Activity: 75.8%
[27]
  IC50 at 72 h: 6.23 µM
[28]
  Activity: 5.3%
[29]
  Activity: 0.56 mm
[30]
  Activity: 9%
[31]
  Activity: 0.56 mm
[32]
  selectivity ratio at 72 h: 25.9
[33]
  IC50: 0.67 µM
